# US10500249B2, “Compositions and methods for preventing or treating diseases, conditions, or processes characterized by aberrant fibroblast proliferation and extracellular matrix deposition” (MOERAE MATRIX, INC., priority 2014, dated 2019)
# “Also recorded” adds a separate entry of the source. Ends that are not written are not given here.
# Tests used:
# TNF-α = test: Plasma cytokine level, bleomycin treatment model; format: in vivo, mouse; conditions: 24 hours after final administration
# [1] = system: phospho-Thr^334-MAPKAPK2 (activated MK2); test: Activated MK2 immunostaining of lung sections, bleomycin treatment model; format: in vivo, C57-BL/6 mice; conditions: day 14 to 28
# Description: (§1) Briefly, C57-BL/6 mice were subjected to bleomycin injury at day 0. […] Formalin-fixed lung tissue sections were immunostained against phospho-Thr^334 MK2. Control staining was with biotinylated secondary IgG antibody. Streptavidin-conjugated horseradish peroxidase was used with 3,3′-diaminobenzidene as substrate and nuclei was counterstained with hematoxylin.
# [2] = system: bleomycin-induced lung fibrosis; test: Bleomycin mouse model of pulmonary fibrosis (prevention model); format: in vivo, C57BL/6 mice; conditions: for collagen accumulation (Masson's Trichrome staining) / fibrotic loci formation / lung fibrosis (H&E staining): daily day 7 to 21 post bleomycin
# Description: (§2) A mouse model of pulmonary fibrosis was generated by administering 0.025 U of bleomycin/PBS intratracheally to C57BL/6 mice. […] At 21 day post bleomycin delivery (for prevention model) or 28 post bleomycin delivery (for treatment model), groups of mice were sacrificed with a sodium pentobarbital injection (120 mg/kg) and the chest cavity was opened. The right mainstem bronchus was ligated and the right lung was removed. The trachea was cannulated and the left lung was perfused with 4% formaldehyde at 21 cm H2O pressure. The tissue blocks then were embedded in paraffin, and […] sections were prepared for staining. Sections from each animal were stained with hematoxylin and eosin (H&E) to visualize cells or with Masson's Trichrome staining to highlight collagen deposition. […] Stained sections were mounted onto a labeled glass slide with organic mounting medium.
# Briefly, fibrotic loci in the lungs of the mice were induced by delivering intratracheally about 0.025 U of bleomycin (dissolved in PBS) to C57BL/6 mice. […] Briefly, mice were sacrificed with a sodium pentobarbital injection (120 mg/kg) and the chest cavity was opened. The right mainstem bronchus was ligated and the right lung was removed. The trachea was cannulated and the left lung was perfused with 4% formaldehyde at 21 cm H2O pressure. The tissue blocks then were embedded in paraffin, and […] sections were prepared, and stained with hematoxylin and eosin (H&E; for pathological examination) or Masson's Trichrome (for collagen staining)
# Next, total collagen levels in the lungs of the bleomycin-injured mice (FIG. 12) were analyzed quantitatively by computing a constant conversion factor (7.5) for collagen from hydroxyproline concentrations (Neuman R. and Logan M, J Biol Chem., 186(2):549-56, 1950, incorporated by reference).
# Next, the effect of increasing doses of MK2 peptide inhibitors on collagen deposition was examined in vivo using the bleomycin mouse model of idiopathic pulmonary fibrosis (prevention model). Briefly, C57-BL/6 mice were subjected to bleomycin injury at day 0.
# [3] = system: bleomycin-induced lung fibrosis; test: Bleomycin mouse model of pulmonary fibrosis (treatment model); format: in vivo, C57BL/6 mice; conditions: for collagen deposition (hydroxyproline assay, whole left lung): day 28 post bleomycin; for lung scarring, histology (H&E and Masson's blue trichrome): daily day 14 to 28 post bleomycin
# Description: as §2
# The classic bleomycin model, as depicted in FIG. 10, has been used widely in the literature in the pre-fibrotic stage to test efficacy of any intervention.
# More specifically, fibrotic loci in the lungs were induced by delivering intratracheally about 0.025 U of bleomycin (dissolved in PBS) to C57BL/6 mice. […] Mice were sacrificed with a sodium pentobarbital injection (120 mg/kg) and the chest cavity was opened. The right mainstem bronchus was ligated and the right lung is removed. The trachea was cannulated and the left lung was perfused with 4% formaldehyde at 21 cm H2O pressure. The tissue blocks then were embedded in paraffin, and […] sections were prepared, and stained with hematoxylin and eosin (H&E; for pathological examination) or Masson's Trichrome (for collagen staining)
# Next, collagen deposition was determined quantitatively by using the standard hydroxyproline assay with whole left lung. Total collagen (soluble and insoluble) deposition was assessed by analyzing hydroxyproline concentrations in murine lungs day 28 post bleomycin injury.
# MLCK (h) = test: Kinase Profiling Assay; format: biochemical, human; conditions: 100 μM
# Description: (§3) Every kinase activity measurement was conducted in duplicate.
# (§4) Specifically, in these assays, a positively charged substrate is phosphorylated with a radiolabeled phosphate group from an ATP if the kinase is not inhibited by an inhibitor peptide. The positively charged substrate then is attracted to a negatively charged filter membrane, quantified with a scintillation counter, and compared to a 100% activity control.
# (§5) In addition to determining the IC50 of the compound, the specificity of MK2 inhibitory peptides was assessed by examining activities of all 266 human kinases available for testing in the Millipore kinase profiling service (Table 1).
# SGK (h) = test: Kinase Profiling Assay; format: biochemical, human; conditions: 100 μM
# Description: as §3, §4, §5
# [4] = system: alpha-smooth muscle actin (α-SMA); test: α-SMA immunostaining of lung sections, bleomycin treatment model; format: in vivo, C57-BL/6 mice; conditions: day 14 through 28
# Description: as §1, with “C57-BL/6” for “Briefly, C57-BL/6”, “α-SMA.” for “phospho-Thr^334 MK2.”, “hematoxylin. Original magnifications: 20×” for “hematoxylin.”
# [5] = system: human fetal lung fibroblasts (IMR-90), α-SMA; test: TGF-β-induced myofibroblast activation, α-SMA immunoblot; format: cell-based; conditions: 1 h pre-treatment, then TGF-β1 (2 ng/ml) 48 h
# Description: Cell lysates were immunoblotted against antibodies for α-SMA (a marker for myofibroblast activation) and GAPDH (loading control).
# splenic T cells = test: Autologous mixed lymphocyte reaction, splenic T cells of bleomycin mice; format: in vivo, C57-BL/6 mice
# Description: Recent studies highlighted a key role for T lymphocytes in bleomycin-induced fibrosis (Wilson, M. et al., The Journal of Experimental Medicine, 207(3): 535-552, 2010). […] Specifically, the ability of C57BL/6 purified antigen-presenting cells to induce proliferation in C57BL/6 T lymphocytes was examined in the assay.
# C57-BL/6 mice were subjected to bleomycin injury at day 0. […] Splenic T cells were isolated and cultured alone or in the presence of autologous antigen presenting cells (APCs from C57-BL/6 mice) or stimulated with antibodies against CD3 (α-CD3) for 48 h. The cells then were radiolabeled with […] thymidine for 16 h and assessed for proliferation rates.
# IL-6 = test: Plasma cytokine level, bleomycin treatment model; format: in vivo, mouse; conditions: 24 hours after final administration
# [6] = system: human fetal lung fibroblasts (IMR-90), fibronectin; test: TGF-β-mediated fibronectin expression; format: cell-based; conditions: 1 h pre-treatment, then TGF-β1 (2 ng/ml) 72 h
# Description: Fibronection was measured as secreted fragments in the conditioned media. Equal amounts (14 μg) of total proteins from the conditioned media were loaded in each lane.
# MAPKAP-K3 (h) = MAPKAP-K3 (h) (Homo sapiens, UniProt Q16644); test: Kinase Profiling Assay; format: biochemical; conditions: read-out: inhibition of kinase activity of MK3
# Description: as §3, §4, §5
# TrkB (h) = TrkB (h) (Homo sapiens, UniProt Q16620); test: Kinase Profiling Assay; format: biochemical; conditions: read-out: inhibition of kinase activity of TrkB
# Description: as §3, §4, §5
# p70S6K (h) = target: T1, p70S6K (h) (Homo sapiens, UniProt P23443); test: Kinase Profiling Assay; format: biochemical
# T1 construct: purchased Millipore
# Description: as §3, §4, §5
# MAPKAP-K2 (h) = MAPKAP-K2 (h) (Homo sapiens, UniProt P49137); test: Kinase Profiling Assay; format: biochemical; conditions: read-out: inhibition of kinase activity of MK2
# Description: as §3, §4, §5
# T1 sequence (P23443 whole entry): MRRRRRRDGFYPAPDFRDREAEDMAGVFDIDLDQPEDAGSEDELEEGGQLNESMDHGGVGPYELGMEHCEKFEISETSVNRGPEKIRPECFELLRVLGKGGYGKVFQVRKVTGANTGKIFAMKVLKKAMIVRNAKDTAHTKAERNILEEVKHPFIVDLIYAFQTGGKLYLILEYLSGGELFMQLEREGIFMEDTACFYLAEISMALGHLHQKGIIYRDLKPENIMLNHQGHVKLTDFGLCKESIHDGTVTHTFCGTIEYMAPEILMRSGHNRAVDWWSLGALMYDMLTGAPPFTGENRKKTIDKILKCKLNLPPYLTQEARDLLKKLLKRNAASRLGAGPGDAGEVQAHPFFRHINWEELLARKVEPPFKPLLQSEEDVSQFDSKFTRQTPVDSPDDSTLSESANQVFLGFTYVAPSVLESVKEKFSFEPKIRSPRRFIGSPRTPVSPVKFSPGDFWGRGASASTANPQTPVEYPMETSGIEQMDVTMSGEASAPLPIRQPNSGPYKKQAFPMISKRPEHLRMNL
# Chain of TrkB (h) (Q16620 32-822): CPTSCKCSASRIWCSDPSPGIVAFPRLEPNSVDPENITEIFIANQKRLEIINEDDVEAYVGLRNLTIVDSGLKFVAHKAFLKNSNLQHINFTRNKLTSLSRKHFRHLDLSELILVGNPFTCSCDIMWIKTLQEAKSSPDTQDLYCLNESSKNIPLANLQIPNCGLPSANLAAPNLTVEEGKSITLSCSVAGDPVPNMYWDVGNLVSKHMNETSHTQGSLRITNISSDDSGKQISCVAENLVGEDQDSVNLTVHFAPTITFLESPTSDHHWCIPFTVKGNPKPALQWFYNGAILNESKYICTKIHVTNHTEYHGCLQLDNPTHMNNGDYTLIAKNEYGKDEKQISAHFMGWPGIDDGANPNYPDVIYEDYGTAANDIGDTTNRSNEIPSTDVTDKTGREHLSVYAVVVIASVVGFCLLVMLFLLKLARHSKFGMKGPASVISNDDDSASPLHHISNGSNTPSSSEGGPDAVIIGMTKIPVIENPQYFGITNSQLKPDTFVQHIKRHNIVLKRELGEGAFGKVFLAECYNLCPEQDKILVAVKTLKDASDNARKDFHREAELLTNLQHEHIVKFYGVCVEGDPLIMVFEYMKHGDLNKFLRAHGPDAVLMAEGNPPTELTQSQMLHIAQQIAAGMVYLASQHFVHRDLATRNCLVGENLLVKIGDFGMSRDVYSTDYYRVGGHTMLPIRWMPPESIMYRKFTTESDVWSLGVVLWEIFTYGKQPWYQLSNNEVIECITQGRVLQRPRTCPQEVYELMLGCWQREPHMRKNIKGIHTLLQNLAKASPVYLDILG
# Chain of MAPKAP-K2 (h) (P49137 whole entry): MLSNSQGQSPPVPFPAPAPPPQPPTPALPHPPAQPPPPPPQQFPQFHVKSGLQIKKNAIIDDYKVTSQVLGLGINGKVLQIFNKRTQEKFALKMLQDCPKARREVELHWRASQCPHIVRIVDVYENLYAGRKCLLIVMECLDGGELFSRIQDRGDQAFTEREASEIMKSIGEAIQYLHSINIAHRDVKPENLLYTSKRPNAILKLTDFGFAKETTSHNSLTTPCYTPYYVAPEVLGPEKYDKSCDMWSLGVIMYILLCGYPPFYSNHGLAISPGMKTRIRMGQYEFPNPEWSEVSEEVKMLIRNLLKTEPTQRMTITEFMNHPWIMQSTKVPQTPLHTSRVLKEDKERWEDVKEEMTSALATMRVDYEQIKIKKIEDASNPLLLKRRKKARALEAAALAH
# Chain of MAPKAP-K3 (h) (Q16644 whole entry): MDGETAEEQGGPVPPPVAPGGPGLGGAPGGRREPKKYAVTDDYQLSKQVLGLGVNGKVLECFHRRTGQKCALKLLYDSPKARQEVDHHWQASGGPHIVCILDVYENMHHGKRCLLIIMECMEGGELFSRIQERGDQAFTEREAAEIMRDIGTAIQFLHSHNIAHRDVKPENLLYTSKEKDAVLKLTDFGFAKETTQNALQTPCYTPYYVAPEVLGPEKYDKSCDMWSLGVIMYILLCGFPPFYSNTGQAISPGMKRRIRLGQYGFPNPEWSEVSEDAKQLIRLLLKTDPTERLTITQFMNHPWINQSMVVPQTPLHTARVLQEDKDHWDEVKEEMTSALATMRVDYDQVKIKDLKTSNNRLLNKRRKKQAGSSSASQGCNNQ
sequence,measurement,setting,value
YARAAARQARAKALARQLGVAA [MMI-0100],plasma level of TNF-α,TNF-α; intraperitoneal,significantly reduced
same,plasma level of TNF-α,TNF-α; nebulized,significantly reduced
same,phospho-Thr^334-MAPKAPK2 staining (activated form of MK2) in lung,[1]; 50 μg/kg daily intraperitoneal,decreased phospho-Thr^334-MAPKAPK2 staining
same,phospho-Thr^334-MAPKAPK2 staining (activated form of MK2) in lung,[1]; 50 μg/kg daily nebulized,as effective as conventional systemic injections in attenuating MK2 activation; also recorded: decreased phospho-Thr^334-MAPKAPK2 staining
same,"collagen levels in the lung (Masson's blue trichrome staining), dose response","[2]; 25, 50 or 75 μg/kg daily IP, day 7 through day 21",prevents fibrosis due to bleomycin injury in a dose-dependent manner; also recorded: decrease in collagen levels
same,collagen accumulation (Masson's Trichrome staining),[2]; intraperitoneal,reduced collagen accumulation
same,fibrotic loci formation / lung fibrosis (H&E staining),[2]; intraperitoneal,protects against bleomycin-induced lung fibrosis; also recorded: significantly reduced development of fibrotic loci formation
same,collagen accumulation (Masson's Trichrome staining),[2]; nebulization,reduced collagen accumulation
same,fibrotic loci formation / lung fibrosis (H&E staining),[2]; nebulization,protects against bleomycin-induced lung fibrosis; also recorded: significantly reduced development of fibrotic loci formation
same,"collagen deposition (hydroxyproline assay, whole left lung)",[3]; 50 μg/kg/day IP from day 14,arrests significant collagen deposition; also recorded: significantly arrested further progression of collagen deposition
same,"collagen deposition (hydroxyproline assay, whole left lung)",[3]; 50 μg/kg/day nebulizer from day 14,arrests significant collagen deposition; also recorded: significantly arrested further progression of collagen deposition
same,"lung scarring, histology (H&E and Masson's blue trichrome)",[3]; intraperitoneal,ameliorates bleomycin-induced lung fibrosis; also recorded: rescued
same,"lung scarring, histology (H&E and Masson's blue trichrome)",[3]; nebulized,ameliorates bleomycin-induced lung fibrosis; also recorded: rescued
same,% activity,MLCK (h),85%
same,% activity,SGK (h),128%
same,level of α-SMA in bleomycin-injured lungs,[4]; 50 μg/kg/day intraperitoneal,inhibits myofibroblast alpha-smooth muscle actin (α-SMA) activation; also recorded: significantly attenuated
same,level of α-SMA in bleomycin-injured lungs,[4]; 50 μg/kg/day nebulizer,inhibits myofibroblast alpha-smooth muscle actin (α-SMA) activation; also recorded: significantly attenuated
same,protein level of α-smooth muscle actin (α-SMA),[5],effectively prevented myofibroblast activation
same,toxicity (proliferative response of splenic T cells to α-CD3),"splenic T cells; 50 μg/kg/day, day 7 to 21",no toxicity
same,systemic distribution,"splenic T cells; nebulized, inferred from lack of splenic T cell response",little systemic distribution
same,plasma level of IL-6,IL-6; intraperitoneal,significantly reduced
same,plasma level of IL-6,IL-6; nebulized,significantly reduced
same,protein level of fibronectin (secreted fragments in conditioned media),[6],effectively prevented myofibroblast activation
same,inhibition at 100 µM,MAPKAP-K3 (h),> 65%
same,inhibition at 100 µM,TrkB (h),> 65%
same,activity at 100 µM,p70S6K (h),89%
same,inhibition at 100 µM,MAPKAP-K2 (h),> 65%
